Reference: ChEMBL document CHEMBL4483862, “Open-source discovery of chemical leads for next-generation chemoprotective antimalarials” (2018)

Test system: Plasmodium berghei
Experiment: Luciferase/luciferin-expressing antifolate-resistant parasites were used to infect a culture of HepG2 cells that were pre-incubated with compounds. Infected hepatocytes emit light due to the luciferase reaction. Assay results are presented as the percent inhibition of light emission compared to control. […]
Type: functional
Conditions: sporozoite; for IC90: read-out: LUCIFERASE INFECTION ASSAY - IC90
[1] = read-out: LUCIFERASE INFECTION ASSAY - IC50

Row | Compound | IC90 | further results
1 | Cc1ccc(C(=O)Cn2c(=O)n(C3CCCCC3)c(=O)c3ccccc32)cc1 | > 8.77 µM | IC50 (FFLUC_HILL_SLOPE 15.7, FFLUC_R_SQUARED 0.382, PBLUC_HILL_SLOPE 31.1, PBLUC_R_SQUARED 0.0716, read-out: LUCIFERASE INFECTION ASSAY - IC50): > 8.77 µM
2 | Cn1cnnc1Sc1ccc(/C=C/c2nc3ccccc3[nH]2)cc1[N+](=O)[O-] | 3.92 µM | IC50 (PBLUC_HILL_SLOPE 13.5, PBLUC_R_SQUARED 0.706, read-out: LUCIFERASE INFECTION ASSAY - IC50): 3.33 µM
3 | C=CCNC(=O)NC(=O)COC(=O)c1c2c(nc3ccccc13)/C(=C/c1cccs1)CCC2 | > 10 µM | IC50 (PBLUC_HILL_SLOPE 2.17, PBLUC_R_SQUARED 0.466, read-out: LUCIFERASE INFECTION ASSAY - IC50): 7.2 µM
4 | Cc1cc(C)cc(C(O)c2nc(-c3cccc4ccccc34)c[nH]2)c1 (stereo not given) | > 10 µM | IC50 (PBLUC_HILL_SLOPE 13.8, PBLUC_R_SQUARED 0.489, read-out: LUCIFERASE INFECTION ASSAY - IC50): 9.47 µM
5 | CCCn1c(NC(=O)C2CCN(S(=O)(=O)c3cccc(Cl)c3Cl)CC2)nc2ccccc21 | 6.16 µM | IC50 (HEPG2TOX_HILL_SLOPE 3.25, HEPG2TOX_R_SQUARED 0.759, PBLUC_HILL_SLOPE 100, PBLUC_R_SQUARED 0.016, read-out: LUCIFERASE INFECTION ASSAY - IC50): 6.02 µM
6 | Clc1ccc2c(c1)C(Nc1ccc3nnnn3n1)CCS2 (stereo not given) | > 10 µM | IC50 (HEPG2TOX_HILL_SLOPE 2.38, HEPG2TOX_R_SQUARED 0.171, read-out: LUCIFERASE INFECTION ASSAY - IC50): > 10 µM
7 | COc1ccc(Nc2nccc3[nH]c(-c4cccc(F)c4)cc23)cc1 | 3.55 µM | IC50 (HEPG2TOX_HILL_SLOPE 10.4, HEPG2TOX_R_SQUARED 0.0549, PBLUC_HILL_SLOPE 2.88, PBLUC_R_SQUARED 0.623, read-out: LUCIFERASE INFECTION ASSAY - IC50): 1.66 µM
8 | Cc1cnc(C(=O)NNC(=O)CC23CC4CC(CC(C4)C2)C3)cn1 | 9.85 µM | IC50 (HEPG2TOX_HILL_SLOPE 1.28, HEPG2TOX_R_SQUARED 0.86, PBLUC_HILL_SLOPE 19.8, PBLUC_R_SQUARED 0.188, read-out: LUCIFERASE INFECTION ASSAY - IC50): 8.81 µM
9 | Cc1cc(Br)c(O)c(/C=N/NC(=S)NC(C)(C)C)c1 | 4.85 µM | IC50 (HEPG2TOX_HILL_SLOPE 12.3, HEPG2TOX_R_SQUARED 0.401, PBLUC_HILL_SLOPE 113, PBLUC_R_SQUARED 0.332, read-out: LUCIFERASE INFECTION ASSAY - IC50): 4.76 µM
10 | COc1ccc(-c2nnc(SCc3csc(-c4ccccc4)n3)n2CCc2ccccc2)cc1 | > 10 µM | IC50 (FFLUC_HILL_SLOPE 7.96, FFLUC_R_SQUARED 0.134, read-out: LUCIFERASE INFECTION ASSAY - IC50): > 10 µM
11 | CC(NCc1ccc(N(C)CCO)cc1)c1ccc(-c2ccccc2)cc1 (stereo not given) | > 10 µM | IC50 (PBLUC_HILL_SLOPE 1.73, PBLUC_R_SQUARED 0.432, read-out: LUCIFERASE INFECTION ASSAY - IC50): 8 µM
12 | CCOC(=O)c1nn(CC2CC2)c2c1CN(CC(C)Cc1ccc3c(c1)OCO3)CC2 (stereo not given) | > 7.76 µM | IC50 [1]: > 7.76 µM
13 | CN(C)c1cccc(-c2cnc3sc(NCCc4ccncc4)nn23)c1 | > 9.05 µM | IC50 [1]: > 9.05 µM
14 | CC(=O)c1cccc(-c2cnc3cnc(-c4cccc(F)c4)cn23)c1 | > 9.96 µM | IC50 (PBLUC_HILL_SLOPE 3, PBLUC_R_SQUARED 0.624, read-out: LUCIFERASE INFECTION ASSAY - IC50): 7.54 µM
15 | CCOc1ccc(NC(=S)N/N=C/c2cc(Cl)cc([N+](=O)[O-])c2O)cc1 | > 10 µM | IC50 (HEPG2TOX_HILL_SLOPE 8.71, HEPG2TOX_R_SQUARED 0.133, PBLUC_HILL_SLOPE 2.29, PBLUC_R_SQUARED 0.38, read-out: LUCIFERASE INFECTION ASSAY - IC50): 6.7 µM
16 | N#CC1=C2C=CC=CN2C(c2ccccc2)(C(F)(F)F)N=C1SCC(=O)Nc1ccc(Cl)c(Cl)c1 (stereo not given) | > 10 µM | IC50 [1]: > 10 µM
17 | OCCNCCNCc1c(OCc2ccccc2Cl)ccc2ccccc12 | > 8.57 µM | IC50 (PBLUC_HILL_SLOPE 12.5, PBLUC_R_SQUARED 0.654, read-out: LUCIFERASE INFECTION ASSAY - IC50): 7.4 µM
18 | CCOc1ccccc1C=C(c1nc2ccccc2s1)c1nc2ccccc2s1 | 9.81 µM | IC50 (PBLUC_HILL_SLOPE 3.78, PBLUC_R_SQUARED 0.344, read-out: LUCIFERASE INFECTION ASSAY - IC50): 5.48 µM
19 | CC(C)OC(=O)c1c(NC(=O)CSc2nnc(N)[nH]2)sc2c1CCCC2 | > 10 µM | IC50 (PBLUC_HILL_SLOPE 4.93, PBLUC_R_SQUARED 0.291, read-out: LUCIFERASE INFECTION ASSAY - IC50): 7.71 µM
20 | Oc1c(C(Nc2nc3ccccc3s2)c2ccc(OC(F)F)cc2)ccc2cccnc12 (stereo not given) | > 10 µM | IC50 [1]: 5.55 µM

Row | Compound | IC90 | further results
21 | CS(=O)(=O)c1ccc2nc(NC(=O)c3cc(-c4ccccc4)nn3-c3ccccc3)sc2c1 | > 10 µM | IC50 (PBLUC_HILL_SLOPE 1.63, PBLUC_R_SQUARED 0.444, read-out: LUCIFERASE INFECTION ASSAY - IC50): 4.67 µM
22 | CCCNC(=O)c1c(NC(=O)c2ccc(F)cc2)nc2ccccn12 | 5.82 µM | IC50 (HEPG2TOX_HILL_SLOPE 16.9, HEPG2TOX_R_SQUARED 0.391, PBLUC_HILL_SLOPE 4.88, PBLUC_R_SQUARED 0.525, read-out: LUCIFERASE INFECTION ASSAY - IC50): 3.71 µM
23 | N#Cc1cccc(CN2CCN3C(C(=O)Nc4ccc(-n5cccc5)cc4)=COC3=NC2=O)c1 | > 10 µM | IC50 [1]: > 10 µM
24 | CC1CCN(Cc2nc(Oc3cccc4c3OC(C)(C)C4)c3c(-c4ccccc4)csc3n2)CC1 | > 10 µM | IC50 [1]: > 10 µM
25 | Cc1[nH]c2ccccc2c1C(=O)NCC1(c2ccccc2)CCC1 | > 10 µM | IC50 (HEPG2TOX_HILL_SLOPE 3.6, HEPG2TOX_R_SQUARED 0.416, PBLUC_HILL_SLOPE 3.04, PBLUC_R_SQUARED 0.598, read-out: LUCIFERASE INFECTION ASSAY - IC50): 7.33 µM
26 | CN(/N=C/c1ccc(Cl)cc1)c1ncc(Cl)cc1C(F)(F)F | > 9.48 µM | IC50 (PBLUC_HILL_SLOPE 3.36, PBLUC_R_SQUARED 0.0281, read-out: LUCIFERASE INFECTION ASSAY - IC50): 7.13 µM
27 | O=C(NCC1CC1)c1cccc(C2(CNCCCN3CCOCC3)CC2)c1 | > 10 µM | IC50 [1]: > 10 µM
28 | COc1ccc(Nc2nc(N)nc(CSc3nc4ccccc4o3)n2)cc1 | 3.53 µM | IC50 (PBLUC_HILL_SLOPE 12.3, PBLUC_R_SQUARED 0.778, read-out: LUCIFERASE INFECTION ASSAY - IC50): 2.95 µM
29 | Cc1c(-c2nc3ncc(Br)cc3[nH]2)cc(C#N)n1C | 9.96 µM | IC50 (FFLUC_HILL_SLOPE 1.06, FFLUC_R_SQUARED 0.775, HEPG2TOX_HILL_SLOPE 12.7, HEPG2TOX_R_SQUARED 0.745, PBLUC_HILL_SLOPE 2.08, PBLUC_R_SQUARED 0.626, read-out: LUCIFERASE INFECTION ASSAY - IC50): 3.46 µM
30 | N#CC(=C1SCCCCS1)S(=O)(=O)c1ccccc1 | > 10.6 µM | IC50 [1]: > 10.6 µM
31 | Cc1nnc(NC(=O)CN2CCC(c3nc4ccccc4o3)CC2)s1 | > 10 µM | IC50 [1]: > 10 µM
32 | COc1ccc(Sc2ccc([N+](=O)[O-])c3nonc23)cc1 | 10.7 µM | IC50 (FFLUC_HILL_SLOPE 14.3, FFLUC_R_SQUARED 0.436, HEPG2TOX_HILL_SLOPE 9.62, HEPG2TOX_R_SQUARED 0.82, PBLUC_HILL_SLOPE 22.9, PBLUC_R_SQUARED 0.553, read-out: LUCIFERASE INFECTION ASSAY - IC50): 9.76 µM
33 | COC(=O)c1c(NC(=O)CSc2nnc(-c3ccccc3Cl)n2C2CCCC2)sc(C)c1C | > 10 µM | IC50 (PBLUC_HILL_SLOPE 0.364, PBLUC_R_SQUARED 0.4, read-out: LUCIFERASE INFECTION ASSAY - IC50): > 10 µM
34 | COc1ccc(-n2c(C)cc(/C=C(\C#N)C(=O)OCC(=O)Nc3ccc(Cl)c(C(F)(F)F)c3)c2C)cc1 | > 10 µM | IC50 [1]: > 10 µM
35 | COc1ccccc1-c1cc2c(Nc3ccc4c(c3)OCCO4)nccc2n1C | 4.78 µM | IC50 [1]: 2.39 µM
36 | CC(C)(C)c1ccc(-c2nnc(SCc3ccccc3Cl)n2-c2cccc(C(F)(F)F)c2)cc1 | > 6.57 µM | IC50 (PBLUC_HILL_SLOPE 55, PBLUC_R_SQUARED 0.768, read-out: LUCIFERASE INFECTION ASSAY - IC50): 6.56 µM
37 | Cc1ccc(N2C(=O)c3ccccc3C(C=NNc3ccc(S(=O)(=O)N4CCCC4)cc3[N+](=O)[O-])C2=O)cc1 (stereo not given) | > 10 µM | IC50 (FFLUC_HILL_SLOPE 3.06, FFLUC_R_SQUARED 0.613, HEPG2TOX_HILL_SLOPE 13, HEPG2TOX_R_SQUARED 0.977, read-out: LUCIFERASE INFECTION ASSAY - IC50): > 10 µM
38 | O=C(NCc1ccco1)C1Cc2c(-c3ccccc3)ccnc2O1 (stereo not given) | 3.73 µM | IC50 (HEPG2TOX_HILL_SLOPE 12.7, HEPG2TOX_R_SQUARED 0.925, PBLUC_HILL_SLOPE 2.58, PBLUC_R_SQUARED 0.503, read-out: LUCIFERASE INFECTION ASSAY - IC50): 1.59 µM
39 | COc1ccc(C2=NN=C/C2=N\Nc2cc(C)cc(C)c2)cc1 | 4.13 µM | IC50 (HEPG2TOX_HILL_SLOPE 4.29, HEPG2TOX_R_SQUARED 0.94, PBLUC_HILL_SLOPE 14.3, PBLUC_R_SQUARED 0.412, read-out: LUCIFERASE INFECTION ASSAY - IC50): 3.54 µM
40 | CC(=C\c1ccc(Cl)cc1)/C(C)=N/O [AP18 5] | 5.3 µM | IC50 (HEPG2TOX_HILL_SLOPE 1.12, HEPG2TOX_R_SQUARED 0.98, PBLUC_HILL_SLOPE 2.33, PBLUC_R_SQUARED 0.772, read-out: LUCIFERASE INFECTION ASSAY - IC50): 2.07 µM
